# Source: patent US20150141336A1, “Pancreatic Peptide Compounds and Use” (Novo Nordisk A/S, priority 2012, published 2015)
# Numbered stars: 1 amine (or outer) side, 2 acyl side, 3 side chain; on linkers, the order of the positions; unused ones are H or OH. Side chains are listed from the residue outwards. Peptide text beside a SMILES is read from it. * marks the point of attachment. C18 diacid = O=C(O)CCCCCCCCCCCCCCCCC(=O)*; γGlu = O=C(O)[C@H](CCC(=O)[*:2])N[*:1]; AEEA = NCCOCCOCC(=O)O
# Experiment: Assay (II) PK i.v. minipig, in vivo half-life
# Design: species or system Göttingen mini-pigs
# Details: male, Göttingen, minipig, iv, Half-life minipig, Assay (II)
# Procedure, shortened: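 Male Göttingen mini-pigs (18–22 kg, n=5) received 6 nmol/kg i.v. via central catheter, formulated in 50 mM K2HPO4, 0.05% tween 80, pH 8.0. EDTA plasma sampled pre-dose to 240 h, quantified by TFC/LC/MS/MS (MRM, range 1-2000 nmol/l); half-life from non-compartmental analysis per animal.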
row,Structure (SMILES),half-life [h]
1,CC[C@H](C)[C@H](NC(=O)[C@H](Cc1ccc(O)cc1)NC(=O)[C@H](CCCNC(=N)N)NC(=O)[C@H](CCCNC(=N)N)NC(=O)[C@H](CCCCNC(=O)COCCOCCNC(=O)COCCOCCNC(=O)CC[C@H](NC(=O)CCCCCCCCCCCCCCCCC(=O)O)C(=O)O)NC(=O)[C@H](CC(=O)O)NC(=O)[C@H](C)NC(=O)[C@H](C)NC(=O)[C@H](Cc1ccc(O)cc1)NC(=O)[C@H](CCC(N)=O)NC(=O)[C@H](C)NC(=O)[C@H](CCSC)NC(=O)[C@H](CCC(N)=O)NC(=O)[C@H](CCC(=O)O)NC(=O)[C@@H]1CCCN1C(=O)[C@@H](NC(=O)[C@H](C)NC(=O)[C@H](CC(N)=O)NC(=O)[C@H](CC(=O)O)NC(=O)CNC(=O)[C@@H]1CCCN1C(=O)[C@H](Cc1ccc(O)cc1)NC(=O)[C@@H](NC(=O)[C@@H]1CCCN1C(=O)[C@H](CCC(=O)O)NC(=O)[C@H](CC(C)C)NC(=O)[C@@H]1CCCN1)C(C)C)[C@@H](C)O)C(=O)N[C@@H](CC(N)=O)C(=O)N[C@@H](CCSC)C(=O)N[C@@H](CC(C)C)C(=O)N[C@H](C(=O)N[C@@H](CCCNC(=N)N)C(=O)N1CCC[C@H]1C(=O)N[C@@H](CCCNC(=N)N)C(=O)N[C@@H](Cc1ccc(O)cc1)C(N)=O)[C@@H](C)O [Compound J] (H-PLEPVYPGDNATPEQMAQYAADK([AEEA-AEEA-γGlu-C18 diacid])RRYINMLTRPRY-NH2; N-terminus and C-terminus assumed),44
2,CC[C@H](C)[C@H](NC(=O)[C@H](Cc1ccc(O)cc1)NC(=O)[C@H](CCCNC(=N)N)NC(=O)[C@H](CCCNC(=N)N)NC(=O)[C@H](CC(C)C)NC(=O)[C@H](CCCCNC(=O)COCCOCCNC(=O)COCCOCCNC(=O)CC[C@H](NC(=O)CCCCCCCCCCCCCCCCC(=O)O)C(=O)O)NC(=O)[C@H](C)NC(=O)[C@H](C)NC(=O)[C@H](Cc1ccc(O)cc1)NC(=O)[C@H](CCC(N)=O)NC(=O)[C@H](C)NC(=O)[C@H](CCSC)NC(=O)[C@H](CCC(N)=O)NC(=O)[C@H](CCC(=O)O)NC(=O)[C@@H]1CCCN1C(=O)[C@@H](NC(=O)[C@H](C)NC(=O)[C@H](CC(N)=O)NC(=O)[C@H](CC(=O)O)NC(=O)CNC(=O)[C@@H]1CCCN1C(=O)[C@H](Cc1ccc(O)cc1)NC(=O)[C@@H](NC(=O)[C@@H]1CCCN1C(=O)[C@H](CCC(=O)O)NC(=O)[C@H](CC(C)C)NC(=O)[C@@H]1CCCN1)C(C)C)[C@@H](C)O)C(=O)N[C@@H](CC(N)=O)C(=O)N[C@@H](CCSC)C(=O)N[C@@H](CC(C)C)C(=O)N[C@H](C(=O)N[C@@H](CCCNC(=N)N)C(=O)N1CCC[C@H]1C(=O)N[C@@H](CCCNC(=N)N)C(=O)N[C@@H](Cc1ccc(O)cc1)C(N)=O)[C@@H](C)O [Compound K] (H-PLEPVYPGDNATPEQMAQYAAK([AEEA-AEEA-γGlu-C18 diacid])LRRYINMLTRPRY-NH2; N-terminus and C-terminus assumed),30
3,CC[C@H](C)[C@H](NC(=O)[C@H](Cc1ccc(O)cc1)NC(=O)[C@H](CCCNC(=N)N)NC(=O)[C@H](CCCNC(=N)N)NC(=O)[C@H](CC(C)C)NC(=O)[C@H](CC(=O)O)NC(=O)[C@H](CCCCNC(=O)COCCOCCNC(=O)COCCOCCNC(=O)CC[C@H](NC(=O)CCCCCCCCCCCCCCCCC(=O)O)C(=O)O)NC(=O)[C@H](C)NC(=O)[C@H](Cc1ccc(O)cc1)NC(=O)[C@H](CCC(N)=O)NC(=O)[C@H](C)NC(=O)[C@H](CCSC)NC(=O)[C@H](CCC(N)=O)NC(=O)[C@H](CCC(=O)O)NC(=O)[C@@H]1CCCN1C(=O)[C@@H](NC(=O)[C@H](C)NC(=O)[C@H](CC(N)=O)NC(=O)[C@H](CC(=O)O)NC(=O)CNC(=O)[C@@H]1CCCN1C(=O)[C@H](Cc1ccc(O)cc1)NC(=O)[C@@H](NC(=O)[C@@H]1CCCN1C(=O)[C@H](CCC(=O)O)NC(=O)[C@H](CC(C)C)NC(=O)[C@@H]1CCCN1)C(C)C)[C@@H](C)O)C(=O)N[C@@H](CC(N)=O)C(=O)N[C@@H](CCSC)C(=O)N[C@@H](CC(C)C)C(=O)N[C@H](C(=O)N[C@@H](CCCNC(=N)N)C(=O)N1CCC[C@H]1C(=O)N[C@@H](CCCNC(=N)N)C(=O)N[C@@H](Cc1ccc(O)cc1)C(N)=O)[C@@H](C)O [Compound L] (H-PLEPVYPGDNATPEQMAQYAK([AEEA-AEEA-γGlu-C18 diacid])DLRRYINMLTRPRY-NH2; N-terminus and C-terminus assumed),83
4,CC[C@H](C)[C@H](NC(=O)[C@H](Cc1ccc(O)cc1)NC(=O)[C@H](CCCNC(=N)N)NC(=O)[C@H](CCCNC(=N)N)NC(=O)[C@H](CC(C)C)NC(=O)[C@H](CC(=O)O)NC(=O)[C@H](C)NC(=O)[C@H](CCCCNC(=O)COCCOCCNC(=O)COCCOCCNC(=O)CC[C@H](NC(=O)CCCCCCCCCCCCCCCCC(=O)O)C(=O)O)NC(=O)[C@H](Cc1ccc(O)cc1)NC(=O)[C@H](CCC(N)=O)NC(=O)[C@H](C)NC(=O)[C@H](CCSC)NC(=O)[C@H](CCC(N)=O)NC(=O)[C@H](CCC(=O)O)NC(=O)[C@@H]1CCCN1C(=O)[C@@H](NC(=O)[C@H](C)NC(=O)[C@H](CC(N)=O)NC(=O)[C@H](CC(=O)O)NC(=O)CNC(=O)[C@@H]1CCCN1C(=O)[C@H](Cc1ccc(O)cc1)NC(=O)[C@@H](NC(=O)[C@@H]1CCCN1C(=O)[C@H](CCC(=O)O)NC(=O)[C@H](CC(C)C)NC(=O)[C@@H]1CCCN1)C(C)C)[C@@H](C)O)C(=O)N[C@@H](CC(N)=O)C(=O)N[C@@H](CCSC)C(=O)N[C@@H](CC(C)C)C(=O)N[C@H](C(=O)N[C@@H](CCCNC(=N)N)C(=O)N1CCC[C@H]1C(=O)N[C@@H](CCCNC(=N)N)C(=O)N[C@@H](Cc1ccc(O)cc1)C(N)=O)[C@@H](C)O [Compound M] (H-PLEPVYPGDNATPEQMAQYK([AEEA-AEEA-γGlu-C18 diacid])ADLRRYINMLTRPRY-NH2; N-terminus and C-terminus assumed),77
5,CC[C@H](C)[C@H](NC(=O)[C@H](Cc1ccc(O)cc1)NC(=O)[C@H](CCCNC(=N)N)NC(=O)[C@H](CCCNC(=N)N)NC(=O)[C@H](CC(C)C)NC(=O)[C@H](CC(=O)O)NC(=O)[C@H](C)NC(=O)[C@H](C)NC(=O)[C@H](CCCCNC(=O)COCCOCCNC(=O)COCCOCCNC(=O)CC[C@H](NC(=O)CCCCCCCCCCCCCCCCC(=O)O)C(=O)O)NC(=O)[C@H](CCC(N)=O)NC(=O)[C@H](C)NC(=O)[C@H](CCSC)NC(=O)[C@H](CCC(N)=O)NC(=O)[C@H](CCC(=O)O)NC(=O)[C@@H]1CCCN1C(=O)[C@@H](NC(=O)[C@H](C)NC(=O)[C@H](CC(N)=O)NC(=O)[C@H](CC(=O)O)NC(=O)CNC(=O)[C@@H]1CCCN1C(=O)[C@H](Cc1ccc(O)cc1)NC(=O)[C@@H](NC(=O)[C@@H]1CCCN1C(=O)[C@H](CCC(=O)O)NC(=O)[C@H](CC(C)C)NC(=O)[C@@H]1CCCN1)C(C)C)[C@@H](C)O)C(=O)N[C@@H](CC(N)=O)C(=O)N[C@@H](CCSC)C(=O)N[C@@H](CC(C)C)C(=O)N[C@H](C(=O)N[C@@H](CCCNC(=N)N)C(=O)N1CCC[C@H]1C(=O)N[C@@H](CCCNC(=N)N)C(=O)N[C@@H](Cc1ccc(O)cc1)C(N)=O)[C@@H](C)O [Compound N] (H-PLEPVYPGDNATPEQMAQK([AEEA-AEEA-γGlu-C18 diacid])AADLRRYINMLTRPRY-NH2; N-terminus and C-terminus assumed),44
